{"source": "patent US5856535A", "about": "“Aminosterol ester compounds” (priority 1996, dated 1999)", "key": {"[1]": {"tested_on": "Xenopus laevis Stages 59-60 tadpoles", "test": "tadpole assay", "assay_type": "in vivo", "settings": "10 μg/ml where stated"}, "melanoma cells": {"tested_on": "melanoma cells", "test": "MTT assay for cell number", "assay_type": "cell-based", "settings": "for IC50: read-out: MTT assay IC50; for minimal effective concentration: 48 h, Table II, read-out: Minimum Effective Concentration, MTT assay", "procedure": "In Table V, several aminosterol esters show efficacy in killing melanoma cells in the MTT assay.\nThe MTT assay for cell number is performed as follows. Cells are counted on a hemocytometer and diluted to a concentration of approx. 10,000 cells/well (55,000 cells/ml×0.18 ml). Cells are then plated in a 96 well microtiter plate and allowed to attach overnight. The next day, compounds are serially diluted from 1000 to 15.6 μg/ml and run in duplicate. 20 μl of each dilution are transferred to the pre-seeded microtiter plates. The final concentrations are 100 to 1.56 μg/ml. The plates are then incubated for 48 hours at 37° C. in 5% CO2. After 48 hours, MTT solution is added. The plate is re-incubated for 4 hours. Readings are done by removing all but 30 μl of media and MTT solution and dissolving the formazan crystals with DMSO. The formazan is dissolved by mixing on a rotating plate at low speed for about 30 minutes. Absorbance of converted dye is measured at a wavelength of 560 nm with background subtraction at 630 nm. The percent survival is determined by a comparison between the mean absorbance of the duplicate test lanes and the growth control."}, "splenocytes": {"tested_on": "splenocytes", "test": "mitogen proliferation assay (splenocytes of treated mice, Con A)", "assay_type": "in vivo", "settings": "for Rel. potency to MSI-1436, Mitogen Proliferation Assay: 10 mg/kg iv", "procedure": "For the attached Tables, the mitogen proliferation assay was performed by treating mice (male or female) with various amounts of the aminosterol test compounds. Some time later (typically between 2 hours and 14 days), the mice are sacrificed and their spleens removed. Splenocytes are harvested and cultured in the presence of between 1-10 μg/ml of Con A (Sigma) for 48 hours. See James Morgan, \"Monoclonal Antibody Production,\" Modern Methods in Pharmacology, pp. 29-67, eds., Spector and Back, 1988. This excerpt is entirely incorporated herein by reference. Cell proliferation is monitored either by direct cell counting or by measurement of the incorporation of radioactive thymidine."}, "[2]": {"test": "inhibition of MSI-1436 binding", "settings": "3H-MSI-1436 at 20 μg/mL"}, "S. aureus": {"tested_on": "S. aureus", "test": "antibiotic activity, S. aureus", "assay_type": "cell-based", "settings": "Staphylococcus aureus"}, "P. aerug": {"tested_on": "P. aerug", "test": "antibiotic activity, P. aerug", "assay_type": "cell-based"}}, "note": "Where two headings read alike, the source gives them in different places.", "data": [{"smiles": "COC(=O)CC[C@@H](C)[C@H]1CC[C@H]2[C@@H]3C[C@@H](O)[C@H]4C[C@H](NCCN)CC[C@]4(C)[C@H]3CC[C@]12C", "note": "[Compound 431]", "values": [{"measurement": "effect on embryonic epithelium / epithelial shedding (in words)", "setting": "[1]", "value": "functionally similar to compound 1437"}]}, {"smiles": "COC(=O)CC[C@@H](C)[C@H]1CC[C@H]2[C@@H]3C[C@@H](O)[C@H]4C[C@@H](NCCN)CC[C@]4(C)[C@H]3CC[C@]12C", "note": "[Compound 432]", "values": [{"measurement": "effect on embryonic epithelium / epithelial shedding (in words)", "setting": "[1]", "value": "functionally similar to compound 1437"}]}, {"smiles": "COC(=O)CC[C@@H](C)[C@H]1CC[C@H]2[C@@H]3C[C@@H](O)[C@H]4C[C@@H](NCCCN5CCN(CCCN)CC5)CC[C@]4(C)[C@H]3CC[C@]12C", "note": "[Compound 469]", "values": [{"measurement": "IC50", "setting": "melanoma cells", "value": 2, "unit": "µg/mL"}, {"measurement": "Rel. potency to MSI-1436, Mitogen Proliferation Assay", "setting": "splenocytes", "value": 1.6}, {"measurement": "potency in the mitogen proliferation assay (in words)", "setting": "splenocytes; mouse, in vivo", "value": "higher potency in the mitogen proliferation assay than compound 1436"}, {"measurement": "% Inhib. of MSI-1436 Binding @ 100 μg/mL", "setting": "[2]", "value": 110, "unit": "%"}]}, {"smiles": "COC(=O)CCC(C)[C@H]1CCC2C3C(CC[C@@]21C)[C@@]1(C)CC[C@H](NCCCNCCCCNCCCN)C[C@@H]1C[C@H]3O", "note": "(some centres unmarked) [drawing 35]", "values": [{"measurement": "MIC", "setting": "S. aureus", "value": "2 to 4", "unit": "µg/mL"}]}, {"smiles": "COC(=O)CCC(C)[C@H]1CCC2C3C(CC[C@@]21C)[C@@]1(C)CC[C@@H](NCCN)C[C@H]1C[C@H]3O", "note": "(some centres unmarked) [drawing 40]", "values": [{"measurement": "MIC", "setting": "P. aerug", "value": 32, "unit": "µg/mL"}]}, {"smiles": "CC(CCC(=O)O)[C@H]1CCC2C3C(CC[C@@]21C)[C@@]1(C)CC[C@H](NCCCNCCCCNCCCN)C[C@H]1C[C@H]3O", "note": "(some centres unmarked) [drawing 43]", "values": [{"measurement": "MIC", "setting": "P. aerug", "value": 64, "unit": "µg/mL"}]}, {"smiles": "COC(=O)CCC(C)[C@H]1CCC2C3CC[C@H]4C[C@H](NCCCNCCCCNCCCN)CC[C@]4(C)C3CC[C@@]21C", "note": "(some centres unmarked) [drawing 55]", "values": [{"measurement": "MIC", "setting": "S. aureus", "value": 4, "unit": "µg/mL"}]}, {"smiles": "COC(=O)CCC(C)[C@H]1CCC2C3C(CC[C@@]21C)[C@@]1(C)CC[C@@H](NCCN)C[C@H]1C[C@H]3O", "note": "(some centres unmarked) [drawing 70]", "values": [{"measurement": "minimal effective concentration", "setting": "melanoma cells", "value": 2.6, "unit": "µg/mL"}]}, {"smiles": "COC(=O)CCC(C)[C@H]1CCC2C3CC[C@H]4C[C@@H](NCCCNCCCCNCCCN)CC[C@]4(C)C3CC[C@@]21C", "note": "(some centres unmarked) [drawing 75]", "values": [{"measurement": "minimal effective concentration", "setting": "melanoma cells", "value": 5, "unit": "µg/mL"}]}, {"smiles": "COC(=O)CCC(C)[C@H]1CCC2C3CC[C@H]4C[C@H](NCCCNCCCCNCCCN)CC[C@]4(C)C3CC[C@@]21C", "note": "(some centres unmarked) [drawing 84]", "values": [{"measurement": "minimal effective concentration", "setting": "melanoma cells", "value": 6.8, "unit": "µg/mL"}]}, {"smiles": "CC(CCC(=O)O)[C@H]1CCC2C3C(CC[C@@]21C)[C@@]1(C)CC[C@H](NCCCNCCCCNCCCN)C[C@H]1C[C@H]3O", "note": "(some centres unmarked) [drawing 86]", "values": [{"measurement": "minimal effective concentration", "setting": "melanoma cells", "value": 18.1, "unit": "µg/mL"}]}, {"smiles": "COC(=O)CCC(C)[C@H]1CCC2C3CC[C@@H]4C[C@H](NCCN)CC[C@]4(C)C3C[C@H](O)[C@@]21C", "note": "(some centres unmarked) [drawing 90]", "values": [{"measurement": "minimal effective concentration", "setting": "melanoma cells", "value": 2.4, "unit": "µg/mL"}]}, {"smiles": "COC(=O)CCC(C)[C@H]1CCC2C3CC[C@H]4C[C@@H](NCCCNCCCCNCCCN)CC[C@]4(C)C3CC[C@@]21C", "note": "(some centres unmarked) [drawing 103]", "values": [{"measurement": "MTT assay IC50", "setting": "melanoma cells; Tables III-V", "value": 4, "unit": "µg/mL"}, {"measurement": "IC50", "setting": "melanoma cells; Tables III-V", "value": 5, "unit": "µg/mL"}, {"measurement": "Rel. potency to MSI-1436, Mitogen Proliferation Assay", "setting": "splenocytes", "value": 0.73}, {"measurement": "% Inhib. of MSI-1436 Binding @ 100 μg/mL", "setting": "[2]", "value": -24, "unit": "%"}]}, {"smiles": "COC(=O)CCC(C)[C@H]1CCC2C3CC[C@@H]4C[C@H](NCCN)CC[C@]4(C)C3C[C@H](O)[C@@]21C", "note": "(some centres unmarked) [drawing 109]", "values": [{"measurement": "IC50", "setting": "melanoma cells; Tables III-V", "value": 2.4, "unit": "µg/mL"}]}, {"smiles": "COC(=O)CCC(C)[C@H]1CCC2C3C(CC[C@@]21C)[C@@]1(C)CC[C@H](NCCCNCCCCNCCCN)C[C@@H]1C[C@H]3O", "note": "(some centres unmarked) [drawing 115]", "values": [{"measurement": "IC50", "setting": "melanoma cells; Tables III-V", "value": 8.1, "unit": "µg/mL"}, {"measurement": "% Inhib. of MSI-1436 Binding @ 100 μg/mL", "setting": "[2]", "value": 32, "unit": "%"}]}, {"smiles": "COC(=O)CCC(C)[C@H]1CCC2C3C(CC[C@@]21C)[C@@]1(C)CC[C@@H](NCCCNCCCCN)C[C@H]1C[C@H]3O", "note": "(some centres unmarked) [drawing 116]", "values": [{"measurement": "IC50", "setting": "melanoma cells; Tables III-V", "value": 12, "unit": "µg/mL"}, {"measurement": "% Inhib. of MSI-1436 Binding @ 100 μg/mL", "setting": "[2]", "value": 18, "unit": "%"}]}, {"smiles": "COC(=O)CCC(C)[C@H]1CCC2C3CC[C@H]4C[C@H](NCCCNCCCCNCCCN)CC[C@]4(C)C3CC[C@@]21C", "note": "(some centres unmarked) [drawing 118]", "values": [{"measurement": "IC50", "setting": "melanoma cells; Tables III-V", "value": 13, "unit": "µg/mL"}, {"measurement": "% Inhib. of MSI-1436 Binding @ 100 μg/mL", "setting": "[2]", "value": 49, "unit": "%"}]}]}
